Laboratory results taken from patent publication US20070178516A1, “Self-addressable self-assembling microelectronic integrated systems, component devices, mechanisms, methods, and procedures for molecular biological analysis and diagnostics” (NANOGEN, INC., priority 1993, published 2007).
{Amino} = amino group added with ABI Aminolink 2 reagent, reacts with dyes such as Texas Red

tested on: not given; test: not given; settings: not told

pH above the surface of the permeation layer | Compound
> 5 | c1c[nH]cn1 [imidazole]
> 5 | N[C@@H](Cc1c[nH]cn1)C(=O)O [Histidine]

tested on: not listed separately; test: Conductivity measurements of transport buffers; type: physicochemical; settings: not given

Average/Std. Deviation (conductivity) | Measurement 1 (conductivity) | Measurement 2 (conductivity) | Measurement 3 (conductivity) | Compound
1.44 +/− 0.04 mS/cm | 1.40 mS/cm | 1.44 mS/cm | 1.48 mS/cm | NaPO4 [10 mM NaPO4]
22.7 +/− 5.09 μS/cm | 27.4 μS/cm | 17.3 μS/cm | 23.5 μS/cm | N[C@@H](CS)C(=O)O [250 mM Cysteine, Cysteine]
9.7 +/− 0.71 μS/cm | 9.16 μS/cm | 9.44 μS/cm | 10.5 μS/cm | O=S(=O)(O)CCN1CCN(CCO)CC1 [25 mM HEPES, HEPES]
1.01 +/− 0.045 mS/cm | 1.05 mS/cm | 960 μS/cm | 1.01 mS/cm | O=C([O-])CCC(=O)[O-].[Na+].[Na+] [5 mM NaSuccinate, NaSuccinate]
186 +/− 18.8 μS/cm | 174 μS/cm | 208 μS/cm | 177 μS/cm | [Cl-].[Cl-].[Mg+2] [1 mM MgCl2, MgCl2]
17.3 +/− 0.87 μS/cm | 16.9 μS/cm | 16.7 μS/cm | 18.3 μS/cm | [Cl-].[Cl-].[Mg+2] [0.1 mM MgCl2, MgCl2]
2.90 +/− 0.11 mS/cm | 2.90 mS/cm | 2.79 mS/cm | 3.00 mS/cm | NaPO4 [20 mM NaPO4]
128.7 +/− 7.0 μS/cm | 122 μS/cm | 128 μS/cm | 136 μS/cm | NaPO4 [1 mM NaPO4]
572 +/− 10.5 μS/cm | 572 μS/cm | 562 μS/cm | 583 μS/cm | NC(CO)(CO)CO [10 mM TRIS, TRIS]

Compound | Average/Std. Deviation (conductivity) | Measurement 1 (conductivity) | Measurement 2 (conductivity) | Measurement 3 (conductivity)
[Cl-].[Na+] [1 mM NaCl, NaCl] | 112.7 +/− 2.08 μS/cm | 112 μS/cm | 115 μS/cm | 111 μS/cm
[Cl-].[Na+] [0.1 mM NaCl, NaCl] | 9.43 +/− 0.93 μS/cm | 8.80 μS/cm | 8.98 μS/cm | 10.5 μS/cm

same assay, conditions: 20 mM sodium phosphate

Compound | conductance
O=P(O)(O)O [NaPO4, Sodium Phosphate] | ~2.9 mS/cm

same assay, conditions: 250 mM cysteine solution, pH 4 to 6 range

conductance | Compound
~23 μS/cm | N[C@@H](CS)C(=O)O [Cysteine]

tested on: not given; test: not given; settings: cited from earlier work

Compound | pKa (first listed) | pKa (second listed) | pKa (third listed)
Cn1cncc1C[C@H](N)C(=O)O [1(π)-methylhistidine] | 1.64, | 6.46, | 8.61^3
NCCC(=O)O [β-Alanine] | – | 10.19 | –
Cn1cnc(C[C@H](N)C(=O)O)c1 [3(τ)-methylhistidine] | 1.70, | 5.87, | 9.16^3

tested on: ET-10AL capture sequence; test: Electronically controlled fluorescent DNA/dye (ethidium bromide) detection; type: binding; settings: capture ET-10AL; peak EB fluorescence after positive bias 0.05 mA, 0.03 Volt-Hours
Experimental: Microcapillary test devices were prepared and hybridized as described in Example 2 and 3. Ethidium bromide (EB) was added to the buffer solution (˜0.05 mM EB final concentration) and the test devices were biased negative to concentrate EB (positively charged) at both the hybridized and un-hybridized microlocations. The test devices were observed by epifluorescece microscopy at 550 nm excitation and 600 nm emission.
The test devices were re-mounted biased positive
constant current at 0.05 mA for 0.03 Volt-Hours, to selectively remove the EB. Fluorescence at the un-hybridized microlocations diminished while the hybridized microlocations retained a very high level of EB fluorescence. The results are given below:
Fluorescent signal was measured using an ICCD imaging
camera system and represent peak fluorescent intensities. The signal to noise ratio would be more than 1000 fold if the entire fluorescent signal area was integrated.

Compound | Normalized Signal
5′-Amino-TGCGAGCTGCAGTCAGACAT (TGCGAGCTGCAGTCAGACAT; DNA, 5' {Amino}, backbone not given here; further chemistry not fully specified) [ET-21A] | 1
5′-Amino-CCT GCT CAT GAG TCT CTC (CCTGCTCATGAGTCTCTC; DNA, 5' {Amino}, backbone not given here; further chemistry not fully specified) [ET-11AL] | >200
